Five compounds from patent US20250154105A1, “POLYCYCLIC COMPOUND AND USE THEREOF” (TYK MEDICINES, INC., priority 2021, published 2025) can be followed below.

The test system of data set [1] is human pleural mesothelioma cells NCI-H226. The data set is described as follows: Cell anti-proliferation experiment (CCK8), NCI-H226. Format: cell-based. The gist of the method: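 Viability was measured by CCK-8 (3 h, A450) after 3-day treatment with 0.15–333.33 nM compound in 0.1% DMSO medium. Curve-fitted IC50 was based on viability normalised to no-drug and cell-free controls.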

Data set [2] is described as follows: Rat pharmacokinetic experiment. Format: in vivo. The following applies: po, male SD rats, gavage (p.o.), 10 mg/kg, plasma. An excerpt: TEST EXAMPLE 3 PHARMACOKINETIC EXPERIMENT OF COMPOUNDS
Pharmacokinetic test of compounds T-32/T-105/T-253/T-272/T-273/T-277 of the present invention.
Experimental Protocol of Rat Pharmacokinetics
• (1) Required animals: healthy adult SD rats, male, 3 rats, 6-8 weeks old; weighing 200-300 g. • (2) Required equipments: analytical balance, animal weight scale, magnetic stirrer, refrigerated centrifuge, single-channel manual pipettor, etc. • (3) Required reagents: EDTA-Na2 anticoagulant, etc. 11.2 g of EDTA-Na2 was weighed and placed in a reagent flask, 100 mL of normal saline was added, and the flask was shook to completely dissolve it. After the preparation was completed, it was divided into 1.5 mL centrifuge tubes with 20 uL each for whole blood sample collection. • (3) About 10 mg of the sample to be tested was accurately weighed, 5% DMSO after conversion was added to dissolve, then 30% PEG400 and 65% (10% Hp-β-CD in PBS) were added for sonication, and vortex-mixed evenly to obtain a solution with a concentration of 1 mg/mL which is freshly prepared before use. • (4) 0.1 mL of sample was taken into a 1.5 mL centrifuge tube and stored at −80° C. for concentration analysis of drug administration solution. • (5) Animals were kept in rat cages, and fasted (not less than 10 h) from the day before the test(but water was allowed). The animals were separately weighed and marked at the tail on the day of the test. Blank blood was collected before administration. The blood was collected from tail vein. • (6) Route of administration: gavage (p.o.); dosage: 10 mg/kg; administration volume: 10 mL/kg. • (7) Operation process: Use the left hand with anti-bite gloves to catch the rat, make it stand upright, stretch the 16th gastric lavage needle from the throat of the mouth, insert the needle when feeling out no obvious resistance, and then inject the drug into the stomach. • (8) 0.2 ml of whole blood was collected from the tested animals and added into EDTA-Na2 anticoagulant tubes before administration and 0.5 h, 1 h, 2 h, 4 h, 6 h, 8 h, 12 h and 24 h after administration respectively. The tubes were reversed up and down for 3-4 times and mixed evenly, centrifuged at 4° C. at 10000 g for 5 min to separate plasma, and stored at −80° C. for testing. The blood was collected from tail vein. • (9) LC-MS/MS method was established to determine the concentration of original drug in plasma, the blood drug concentration-time curve was drawn, and the main pharmacokinetic parameters were calculated by non-compartment model. • (10) Pharmacokinetic parameters of T-32/T-105/T-253/T-272/T-273/T-277 were shown below in Table 2.

pIC50: −log10 of the molar value.

Turning to `CNS(=O)(=O)c1ccc2c(c1)c1cn(C)nc1c(=O)n2-c1ccc(C(F)(F)F)cc1` [Example T-32], the negative-log IC50 (pIC50) (as a rule, the negative decadic logarithm of the IC50, by convention in mol/L) in data set [1] was at least 6.00. In data set [2], the exposure AUC(0-t) – broadly, exposure summed from dosing to a finite time, without extrapolation to infinity – was determined as 22200 ng·h/mL; the Cmax (in general, the highest concentration seen after dosing) turned out to be 2220 ng/mL; the mean residence time MRT last (in general, the average time that molecules of a dose stay in the body) was determined as 6.88 h; the time of peak concentration (Tmax) (usually the time from dosing to the highest level) was 2.5 h.

Turning to `C[C@H](NC(=O)c1ccc2c(c1)c1nn(C)cc1c(=O)n2-c1ccc(C(F)(F)F)cc1)c1ccccn1` [Example T-105], the negative logarithm of the IC50 (pIC50) in data set [1] was at least 6.00. Further, in data set [2], the exposure AUC(0-t) came to 53900 ng·h/mL, the highest concentration (Cmax) came out at 3870 ng/mL, the MRT last worked out at 9.48 h and the time to peak (Tmax) stood at 4 h.

In the case of `C[C@H](NC(=O)c1ccc2c(c1)c1cnccc1c(=O)n2-c1ccc(C(F)(F)F)cc1)c1ccccn1` [Example T-253], in data set [1], the pIC50 was at least 6.00. In addition, in data set [2], the AUC(0-t) stood at 39200 ng·h/mL, the highest concentration (Cmax) turned out to be 2640 ng/mL, the mean residence time MRT last came to 9.78 h and the Tmax turned out to be 4.7 h.

In the case of `C[C@H](NC(=O)c1ccc2c(c1)c1ccccc1c(=O)n2-c1ccc(C(F)(F)F)cc1)c1ccccn1` [Example T-272], in data set [1], the pIC50 was at least 6.00. Also, in data set [2], the exposure AUC(0-t) stood at 21200 ng·h/mL, the highest level (Cmax) was 1410 ng/mL, the mean residence time (MRT last) was 9.96 h and the Tmax was 5.3 h.

`Cc1cc(=O)n(-c2ccc(C(F)(F)F)cc2)c2ccc(C(=O)N[C@@H](C)c3ccccn3)cc12` [Example T-277] had a pIC50 in data set [1] of at least 6.00. Also, in data set [2], the AUC(0-t) was determined as 26900 ng·h/mL, the Cmax was determined as 2650 ng/mL, the MRT last worked out at 7.28 h and the time of peak concentration (Tmax) was 4.7 h.
